As usually defined, the IC50 is the concentration at which inhibition is half-maximal. The low end stands for greater potency in that assay, the high end for weaker potency in that assay.

In this assay the target is P2X7 receptor (Homo sapiens (Human), UniProt Q99572). The assay can be described thus: P2X7 FLIPR assay: antagonism of BzATP response in 293 HEK cells stably expressing P2X7 receptor. It counts as cell-based. The conditions noted are these: FLIPR fluorescence (Fluo-4), agonist BzATP, 293 HEK cells stably transfected with P2X7 receptor. On the procedure: Cells were plated to cell density of approximately 15,000 cells/well in 384-well assay plates (50 μl/well) with 1.5% low serum media (DMEM, 1.5% BCS, 1% L-glut (2 mM), 1% P/S).
Chain of P2X7 receptor (Q99572 whole entry): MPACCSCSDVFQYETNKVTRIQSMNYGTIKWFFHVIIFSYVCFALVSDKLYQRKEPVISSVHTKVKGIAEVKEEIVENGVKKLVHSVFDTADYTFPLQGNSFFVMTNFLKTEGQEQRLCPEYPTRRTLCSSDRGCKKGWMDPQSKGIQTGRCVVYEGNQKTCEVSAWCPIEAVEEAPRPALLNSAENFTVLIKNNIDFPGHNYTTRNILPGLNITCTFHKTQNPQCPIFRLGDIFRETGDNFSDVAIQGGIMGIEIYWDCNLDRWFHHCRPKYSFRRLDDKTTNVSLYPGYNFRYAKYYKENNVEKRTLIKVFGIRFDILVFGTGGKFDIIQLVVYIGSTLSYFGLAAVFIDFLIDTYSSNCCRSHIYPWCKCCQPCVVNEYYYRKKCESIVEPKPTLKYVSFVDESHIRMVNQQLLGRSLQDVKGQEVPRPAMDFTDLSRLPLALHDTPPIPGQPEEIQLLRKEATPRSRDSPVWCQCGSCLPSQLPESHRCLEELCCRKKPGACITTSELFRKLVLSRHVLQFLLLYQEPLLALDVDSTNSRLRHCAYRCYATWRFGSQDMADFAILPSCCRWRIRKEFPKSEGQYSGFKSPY
Cells were plated to cell density of approximately 15,000 cells/well in 384-well assay plates (50 μl/well) with 1.5% low serum media (DMEM, 1.5% FBS, 1% L-glut (2 mM), 10 mM HEPES, 1% P/S). Cells were plated 24 hours prior to assay. Cells expressing human, rat or mouse P2X7 receptor were assayed in the following manner.
Fluo-4 NW dye mix (Molecular Probes, Inc., Eugene, Oreg., USA) was prepared in buffer (see manufacturer's instructions). Cell plates were removed from the 37° C. incubator, the media discarded and then 30 μL of dye was added to each well. Plates were placed in the 37° C., non-CO2 incubator for 30 minutes and then room temperature for 30 minutes.
Compound mixtures (A) were added to assay plates containing cells and placed at room temperature for 30 minutes, then BzATP (B) was added. Fluorescence was read using the Tetra FLIPR® (Molecular Devices, Inc., Sunnyvale, Calif., USA) and IC50 values were calculated by standard methods to determine antagonist activity.
Regarding `Cc1ncc(C(CNC(=O)c2c(F)cccc2Cl)N2CCCC(F)(F)C2)cn1` (single isomer, unassigned; (+)) [(+)2-chloro-N-[2-(3,3-difluoro-1-piperidyl)-2-(2-methylpyrim] [(+)2-chloro-6-fluoro-N-(2-(3,3-difluoropiperidin-1-yl)-2-(2-methylpyrimidin-5-yl)ethyl)benzamide], the IC50 was 53 nM.

As for `O=C(NCC(c1ccc(C(F)F)nc1)N1CCC(F)(F)CC1)c1c(Cl)cccc1Cl` (single isomer, unassigned; (-)) [(−)2,6-dichloro-N-[2-[6-(difluoromethyl)-3-pyridyl]-2-(4,4-d] [(−)2,6-dichloro-N-(2-(2-(difluoromethyl)pyridin-5-yl)-2-(4,4-difluoropiperidin-1-yl)ethyl)benzamide], the IC50 came to 5.5 nM. Against the preceding compound, the IC50 is about 9.6-fold lower.

The compound `O=C(NCC(c1cnc(C(F)(F)F)nc1)N1CCC(F)(F)CC1)c1c(Cl)ccc(F)c1Cl` (single isomer, unassigned; (-)) [(−)2,6-dichloro-N-[2-(4,4-difluoro-1-piperidyl)-2-[2-(triflu] [(−)2,6-dichloro-5-fluoro-N-(2-(4,4-difluoropiperidin-1-yl)-2-(2-(trifluoromethyl)pyrimidin-5-yl)ethyl)benzamide] displayed an IC50 of 4.9 nM. The IC50 values of the last two compounds are within 1.5-fold of each other.

For `COc1ccc(F)c(C(=O)NCC(c2cnc(C(F)(F)F)nc2)N2CCC(F)(F)CC2)c1Cl` (single isomer, unassigned; (-)) [(−)2-chloro-N-[2-(4,4-difluoro-1-piperidyl)-2-[2-(trifluorom] [(−)2-chloro-N-(2-(4,4-difluoropiperidin-1-yl)-2-(2-(trifluoromethyl)pyrimidin-5-yl)ethyl)-6-fluoro-3-methoxybenzamide], the IC50 came to 31 nM.

As for `COc1cccc(C(=O)NCC(c2cnc(C)nc2)N2CCC(F)(F)CC2)c1Cl` (single isomer, unassigned; (+)) [(+)2-chloro-N-[2-(4,4-difluoro-1-piperidyl)-2-(2-methylpyrim] [(+)2-chloro-3-methoxy-N-(2-(4,4-difluoropiperidin-1-yl)-2-(2-methylpyrimidin-5-yl)ethyl)benzamide], the IC50 is 12 nM.

`O=C(NCC(c1ccc(C(F)(F)F)nc1)N1CCOCC1)c1c(F)cccc1Cl` (single isomer, unassigned; (+)) [(+)2-chloro-6-fluoro-N-[2-morpholino-2-[6-(trifluoromethyl)-] [(+)2-chloro-6-fluoro-N-(2-morpholino-2-(6-(trifluoromethyl)pyridin-3-yl)ethyl)benzamide] displayed an IC50 of 32 nM. Compared with the last compound, the IC50 is about 2.7-fold higher.

For the compound `Cc1ncc(C(CNC(=O)c2ccccc2Cl)N2CCCCC2)cn1` (single isomer, unassigned; (+)) [(+)2-chloro-N-[2-(2-methylpyrimidin-5-yl)-2-(1-piperidyl)eth] [(+)2-chloro-N-(2-(2-methylpyrimidin-5-yl)-2-(piperidin-1-yl)ethyl)benzamide], the IC50 was found to be 59 nM. This IC50 is about 1.8-fold higher than that of the compound before.

On to `O=C(NCC(c1ccc(Cl)cc1)N1CCC(F)(F)CC1)c1cccc(Cl)c1Cl` (centres unmarked) [N-[2-(4-Chloro-phenyl)-2-(4,4-difluoro-piperidin-1-yl)-ethyl]-2,3-dichloro-benzamide], for which the IC50 came out at 46 nM.

`Cc1ncc(C(CNC(=O)c2cccc(Cl)c2Cl)N2CCC(F)CC2)cn1` (single isomer, unassigned; (+)) [(+)2,3-dichloro-N-[2-(4-fluoro-1-piperidyl)-2-(2-methylpyrim] [(+2,3-dichloro-N-(2-(4-fluoropiperidin-1-yl)-2-(2-methylpyrimidin-5-yl)ethyl)benzamide] displayed an IC50 of 6.5 nM.

With `O=C(NCC(c1ccc(C(F)(F)F)nc1)N1CCC(F)(F)CC1)c1ccccc1Cl` (centres unmarked) [2-Chloro-N-[2-(4,4-difluoro-1-piperidyl)-2-[6-(trifluoromethyl)-3-pyridyl]ethyl]benzamide], the half-inhibitory concentration (IC50) turned out to be 1.8 nM.

In turn, `O=C(NCC(c1cnc(C(F)(F)F)nc1)N1CCC(F)(F)CC1)c1ccc(Cl)cc1Cl` (single isomer, unassigned; (-)) [(−)2,4-dichloro-N-[2-(4,4-difluoro-1-piperidyl)-2-[2-(triflu] [(−)2,4-dichloro-N-(2-(4,4-difluoropiperidin-1-yl)-2-(2-(trifluoromethyl)pyrimidin-5-yl)ethyl)benzamide] displayed an IC50 of 6.4 nM.

`O=C(NCC(c1cnc(C(F)(F)F)nc1)N1CCC(F)CC1)c1ccccc1Cl` (single isomer, unassigned; (-)) [(−)2-chloro-N-[2-(4-fluoro-1-piperidyl)-2-[2-(trifluoromethy] [(−)2-chloro-N-(2-(4-fluoropiperidin-1-yl)-2-(2-(trifluoromethyl)pyrimidin-5-yl)ethyl)benzamide] returned an IC50 of 13 nM.

Regarding `Cc1ccc(Cl)c(C(=O)NCC(c2cccnc2)N2CCOCC2)c1` (centres unmarked) [2-Chloro-5-methyl-N-(2-morpholin-4-yl-2-pyridin-3-yl-ethyl)-benzamide], the IC50 was found to be 3000 nM.

Consider `Cc1ncc(C(CNC(=O)c2cccc(Cl)c2Cl)N2CC3CCC2C3)cn1` (centres unmarked) [N-(2-(2-azabicyclo[2.2.1]heptan-2-yl)-2-(2-methylpyrimidin-5-yl)ethyl)-2,3-dichlorobenzamide], for which the IC50 is 3200 nM.

With `CS(=O)(=O)c1ccc(Cl)c(C(=O)NCC(c2ccc(Cl)cc2)N2CCOCC2)c1` (single isomer, unassigned; (+)) [(+)2-chloro-N-[2-(4-chlorophenyl)-2-morpholino-ethyl]-5-meth] [(+)2-chloro-N-(2-(4-chlorophenyl)-2-morpholinoethyl)-5-(methylsulfonyl)benzamide], the IC50 was 180 nM.

`O=C(NCC(c1cnc(C(F)(F)F)nc1)N1CCOCC1)c1cccc(Cl)c1Cl` (single isomer, unassigned; (-)) [(−)2,3-dichloro-N-[2-morpholino-2-[2-(trifluoromethyl)pyrimi] [(−)2,3-Dichloro-N-[2-morpholino-2-[2-(trifluoromethyl)pyrimidin-5-yl]ethyl]benzamide]: the IC50 stood at 3.2 nM. This IC50 lies about 56-fold lower than the previous one.

`O=C(NCC(c1ccc(C(F)F)nc1)N1CCC(F)(F)CC1)c1ccccc1Cl` (single isomer, unassigned; (-)) [(−)2-chloro-N-[2-[6-(difluoromethyl)-3-pyridyl]-2-(4,4-diflu] [(−)2-chloro-N-(2-(2-(difluoromethyl)pyridin-5-yl)-2-(4,4-difluoropiperidin-1-yl)ethyl)benzamide]: the IC50 is 12 nM.

In turn, `CC1(C)CCN(C(CNC(=O)c2cccc(Cl)c2Cl)c2cnc(C(F)(F)F)nc2)CC1` (centres unmarked) [2,3-dichloro-N-(2-(4,4-dimethylpiperidin-1-yl)-2-(2-(trifluoromethyl)pyrimidin-5-yl)ethyl)benzamide] came in with an IC50 of 2500 nM.

`O=C(NCC(c1cnc(C(F)(F)F)nc1)N1CCC(F)(F)CC1)c1c(F)cc(F)cc1Cl` (single isomer, unassigned; (-)) [(−)2-chloro-N-[2-(4,4-difluoro-1-piperidyl)-2-[2-(trifluorom] [(−)2-chloro-4,6-difluoro-N-(2-(4,4-difluoropiperidin-1-yl)-2-(2-(trifluoromethyl)pyrimidin-5-yl)ethyl)benzamide]: the IC50 was found to be 31 nM.

`Cc1ncc(C(CNC(=O)c2c(Cl)ccc(F)c2Cl)N2CCC(F)(F)CC2)cn1` (single isomer, unassigned; (-)) [(−)2,6-dichloro-N-[2-(4,4-difluoro-1-piperidyl)-2-(2-methylp] [(−)2,6-dichloro-5-fluoro-N-(2-(4,4-difluoropiperidin-1-yl)-2-(2-methylpyrimidin-5-yl)ethyl)benzamide] registered an IC50 of 37 nM. The IC50 values of the last two compounds are within 1.5-fold of each other.

Turning to `O=C(NCC(c1cccnc1)N1CCOCC1)c1cccc(Cl)c1Cl` (centres unmarked) [2,3-Dichloro-N-(2-morpholin-4-yl-2-pyridin-3-yl-ethyl)-benzamide], the IC50 turned out to be 1100 nM. This IC50 lies about 30-fold higher than the previous one.

As to `O=C(NCC(c1cnc(C(F)F)nc1)N1CCOCC1)c1cccc(Cl)c1Cl` (single isomer, unassigned; (+)) [(+)2,3-dichloro-N-[2-[2-(difluoromethyl)pyrimidin-5-yl]-2-mo] [(+)2,3-dichloro-N-(2-(2-(difluoromethyl)pyrimidin-5-yl)-2-morpholinoethyl)benzamide], the IC50 is 3.9 nM. This IC50 lies about 280-fold lower than the previous one.

Take `Cc1ncc(C(CNC(=O)c2ccccc2Cl)N2CCCC(F)(F)C2)cn1` (single isomer, unassigned; (+)) [(+)2-chloro-N-[2-(3,3-difluoro-1-piperidyl)-2-(2-methylpyrim] [(+)2-chloro-N-(2-(3,3-difluoropiperidin-1-yl)-2-(2-methylpyrimidin-5-A)ethyl)benzamide]: the IC50 was found to be 85 nM.

`Cn1cc(C(CNC(=O)c2ccccc2Cl)N2CCC(F)(F)CC2)cn1` (single isomer, unassigned; (-)) [(−)2-chloro-N-[2-(4,4-difluoro-1-piperidyl)-2-(1-methylpyraz] [(−)2-chloro-N-(2-(4,4-difluoropiperidin-1-yl)-2-(1-methyl-1H-pyrazol-4-yl)ethyl)benzamide] returned an IC50 of 230 nM.

Consider `Cc1ncc(C(CNC(=O)c2c(Cl)cccc2Cl)N2CCOCC2)cn1` (centres unmarked) [2,6-dichloro-N-(2-(2-methylpyrimidin-5-yl)-2-morpholinoethyl)benzamide], for which the IC50 worked out at 120 nM.

`Cc1ncc(C(CNC(=O)c2ccccc2Cl)N2CCCCC2)cn1` (single isomer, unassigned; (-)) [(−)2-chloro-N-[2-(2-methylpyrimidin-5-yl)-2-(1-piperidyl)eth] [(−)2-chloro-N-(2-(2-methylpyrimidin-5-yl)-2-(piperidin-1-yl)ethyl)benzamide] registered an IC50 of 120 nM.

(Values after patent US9415055B2, “Cyclic amines” (H. Lundbeck A/S, priority 2012, dated 2016).)
